Measurements as given in US20120149662A1, “Heterocyclic Compounds as Janus Kinase Inhibitors” (BioCryst Pharmaceuticals, Inc., priority 2009, published 2012).

Target: JAK3 (JH1domain-catalytic) kinase and other members of the JAK family
Assay: Test A: IC50 determination against JAK family kinases (Fabian et al. 2005 / Karaman et al. 2008 assay)
Type: binding
Conditions: 11 point dose response curves in triplicate; JAK family member not given; read-out: Activity (IC50) for JAK Family of Enzymes
Description: The ability of a compound of the invention to bind to JAK3 may be determined using pharmacological models which are well known to the art, or using Test A described below.
Inhibition constants (IC50s) were determined against JAK3 (JH1domain-catalytic) kinase and other members of the JAK family. Assays were performed as described in Fabian et al. (2005) Nature Biotechnology, vol. 23, p. 329 and in Karaman et al. (2008) Nature Biotechnology, vol. 26, p. 127 Inhibition constants were determined using 11 point dose response curves which were performed in triplicate. Table 1 shown below lists compounds of the invention and their respective IC50 values.

Row | SMILES | IC50
1 | CC(C)(C)OC(=O)N1CC(CC#N)(n2cc(-c3cnnc4[nH]ccc34)cn2)C1 [Compound 45d, tert-butyl 3-(4-(7H-pyrrolo[2,3-c]pyridazin-4-yl)-1H-pyrazol-1-yl)-3-(cyanomethyl)azetidine-1-carboxylate] | > 10 µM
2 | N#CC[C@]1(n2cc(-c3cnnc4[nH]ccc34)cn2)C[C@@H](C#N)C1 [Compound 60f, (Z)-3-(4-(7H-pyrrolo[2,3-c]pyridazin-4-yl)-1H-pyrazol-1-yl)-3-(cyanomethyl)cyclobutanecarbonitrile] | < 5 µM
3 | NC(=O)c1c[nH]c2nnnc(O)c12 [Compound 70c, 4-hydroxy-7H-pyrrolo[2,3-d][1,2,3]triazine-5-carboxamide] | > 10 µM
4 | CC(C)(C)C(=O)OCn1ccc2c(-c3cn[nH]c3)cnnc21 [Compound 43a, (4-(1H-pyrazol-4-yl)-7H-pyrrolo[2,3-c]pyridazin-7-yl)methyl pivalate] | > 10 µM
5 | N#CCC(C1CCCC1)n1cc(-c2cnnc3[nH]ccc23)cn1 (stereo not drawn) [Compound 34j, 3-(4-(7H-pyrrolo[2,3-c]pyridazin-4-yl)-1H-pyrazol-1-yl)-3-cyclopentylpropanenitrile] | < 5 µM
6 | N#CCC(CC1CC1)n1cc(-c2cnnc3[nH]ccc23)cn1 (stereo not drawn) [Compound 57e, 3-(4-(7H-pyrrolo[2,3-c]pyridazin-4-yl)-1H-pyrazol-1-yl)-4-cyclopropylbutane nitrile] | < 5 µM
7 | N#CCC1(n2cc(-c3cnnc4[nH]ccc34)cn2)COC1 [Compound 46c, 2-(3-(4-(7H-pyrrolo[2,3-c]pyridazin-4-yl)-1H-pyrazol-1-yl)oxetan-3-yl)acetonitrile] | < 10 µM
8 | N#CCC(CC1CCCC1)n1cc(-c2cnnc3[nH]ccc23)cn1 (stereo not drawn) [Compound 51e, 3-(4-(7H-pyrrolo[2,3-c]pyridazin-4-yl)-1H-pyrazol-1-yl)-4-cyclopentylbutane nitrile] | < 5 µM
9 | CCOC(C)n1cc(-c2cnnc3[nH]ccc23)cn1 (stereo not drawn) [Compound 32c, 4-(1-(1-ethoxyethyl)-1H-pyrazol-4-yl)-7H-pyrrolo[2,3-c]pyridazine] | > 10 µM
10 | N#CC[C@@H](C1CCCC1)n1cc(-c2cnnc3[nH]ccc23)cn1 [Compound 44d, (S)-3-(4-(7H-pyrrolo[2,3-c]pyridazin-4-yl)-1H-pyrazol-1-yl)-3-cyclopentyl propanenitrile] | < 5 µM
11 | N#CCC1(n2cc(-c3cnnc4[nH]ccc34)cn2)CCCC1 [Compound 48d, 2-(1-(4-(7H-pyrrolo[2,3-c]pyridazin-4-yl)-1H-pyrazol-1-yl)cyclopentyl)acetonitrile] | < 5 µM
12 | c1ccc(-c2cnnc3[nH]ccc23)cc1 [Compound 50a, 4-phenyl-7H-pyrrolo[2,3-c]pyridazine] | > 10 µM
13 | N#CC[C@H](C1CCCCC1)n1cc(-c2cnnc3[nH]ccc23)cn1 [Compound 58d, (R)-3-(4-(7H-pyrrolo[2,3-c]pyridazin-4-yl)-1H-pyrazol-1-yl)-3-cyclohexylpropanenitrile] | < 5 µM
14 | N#CCC(C1CC1)n1cc(-c2cnnc3[nH]ccc23)cn1 (stereo not drawn) [Compound 53d, 3-(4-(7H-pyrrolo[2,3-c]pyridazin-4-yl)-1H-pyrazol-1-yl)-3-cyclopropylpropane nitrile] | < 5 µM
15 | N#CCC1(n2cc(-c3cnnc4[nH]ccc34)cn2)CCCCC1 [Compound 56d, 2-(1-(4-(7H-pyrrolo[2,3-c]pyridazin-4-yl)-1H-pyrazol-1-yl)cyclohexyl)acetonitrile] | < 5 µM
16 | N#CCC1(n2cc(-c3cnnc4[nH]ccc34)cn2)CCC1 [Compound 55d, 2-(1-(4-(7H-pyrrolo[2,3-c]pyridazin-4-yl)-1H-pyrazol-1-yl)cyclobutyl)acetonitrile] | < 5 µM
17 | c1cc2c(-c3cn[nH]c3)cnnc2[nH]1 [Compound 31m, 4-(1H-pyrazol-4-yl)-7H-pyrrolo[2,3-c]pyridazine] | > 10 µM
18 | N#CCC(CC1CCCCC1)n1cc(-c2cnnc3[nH]ccc23)cn1 (stereo not drawn) [Compound 52e, 3-(4-(7H-pyrrolo[2,3-c]pyridazin-4-yl)-1H-pyrazol-1-yl)-4-cyclohexylbutane nitrile] | < 5 µM
19 | N#CC[C@H](C1CCCC1)n1cc(-c2cnnc3[nH]ccc23)cn1 [Compound 43g, (R)-3-(4-(7H-pyrrolo[2,3-c]pyridazin-4-yl)-1H-pyrazol-1-yl)-3-cyclopentylpropanenitrile] | < 5 µM
20 | N#CCC[C@H](C1CCCC1)n1cc(-c2cnnc3[nH]ccc23)cn1 [Compound 62b, (R)-4-(4-(7H-pyrrolo[2,3-c]pyridazin-4-yl)-1H-pyrazol-1-yl)-4-cyclopentyl butanenitrile] | < 5 µM
21 | N#CCC(C1CCC1)n1cc(-c2cnnc3[nH]ccc23)cn1 (stereo not drawn) [Compound 54e, 3-(4-(7H-pyrrolo[2,3-c]pyridazin-4-yl)-1H-pyrazol-1-yl)-3-cyclobutylpropane nitrile] | < 5 µM
22 | N#CC[C@H](c1ccccc1)n1cc(-c2cnnc3[nH]ccc23)cn1 [Compound 67d, (R)-3-(4-(7H-pyrrolo[2,3-c]pyridazin-4-yl)-1H-pyrazol-1-yl)-3-phenylpropane nitrile] | < 5 µM
23 | N#CC[C@H](CC1CCCC1)n1cc(-c2cnnc3[nH]ccc23)cn1 [Compound 59d, (S)-3-(4-(7H-pyrrolo[2,3-c]pyridazin-4-yl)-1H-pyrazol-1-yl)-4-cyclopentylbutanenitrile] | < 5 µM
24 | N#CC[C@]1(n2cc(-c3cnnc4[nH]ccc34)cn2)C[C@H](C#N)C1 [Compound 60g, (E)-3-(4-(7H-pyrrolo[2,3-c]pyridazin-4-yl)-1H-pyrazol-1-yl)-3-(cyanomethyl)cyclobutanecarbonitrile] | < 5 µM
25 | N#CCC(C1CCCCC1)n1cc(-c2cnnc3[nH]ccc23)cn1 (stereo not drawn) [Compound 47d, 3-(4-(7H-pyrrolo[2,3-c]pyridazin-4-yl)-1H-pyrazol-1-yl)-3-cyclohexylpropane nitrile] | < 5 µM
26 | N#CC[C@H](c1cccc(O)c1)n1cc(-c2cnnc3[nH]ccc23)cn1 [Compound 68f, (R)-3-(4-(7H-pyrrolo[2,3-c]pyridazin-4-yl)-1H-pyrazol-1-yl)-3-(3-hydroxyphenyl)propanenitrile] | < 5 µM
27 | CCS(=O)(=O)N1CC(CC#N)(n2cc(-c3cnnc4[nH]ccc34)cn2)C1 [Compound 49c, 2-(3-(4-(7H-pyrrolo[2,3-c]pyridazin-4-yl)-1H-pyrazol-1-yl)-1-(ethylsulfonyl)azetidin-3-yl)acetonitrile] | < 5 µM
